Results on four compounds are retold here after patent publication EP2769723A1, “Compounds for use in inhibiting HIV capsid assembly” (priority 2013, dated 2014).

The nature of series [1]: Solubility observations (DMSO, ITC buffer). Format: physicochemical.
For a further series, the target named is T1, CA (Human immunodeficiency virus type 1 group M subtype B, UniProt P12493).
T1 construct: a fusion protein of CA with glutathione-S-transferase (CA-GST)
Description: ALPHA screen (AlphaScreen): inhibition of CAI binding to CA. Set-up: species or system HIV-1.

A further series relates to wild type NL4.3 HIV-1. The series can be described thus: Tissue culture infectivity test, TZM titration of supernatants from infected TZM cells. Format: cell-based. As to conditions: Human immunodeficiency virus 1, TZM, read-out: tissue culture IC50 (µM). The procedure: Hits selected in the YFP-screen were further evaluated in the tissue culture experiments with cells infected with the wild type NL4.3 HIV-1. The virus for infection was obtained from co-culture of MT4 cells. The MT4 cells co-culture was synchronized for one week and then used for the infection of fresh MT 4 cells. 48 hrs post-infection was the culture supernatant harvested, cleared by the filtration through […] filter and stored in -80 °C in 1 ml aliquots. Amount of virus was quantified by enzyme-linked immuno sorbent assay (ELISA) with antibodies against HIV-1 CA (3 ng of CA/ml) and blue cell assay (1x10^5 IU/ml), which gives 3 x 10^4 IU/ng of CA.
For compounds testing the TZM cells were seeded on 96-well plate in the density 5 x 10^3 cells per well. The culture media was aspirated approx. 16 hrs later and cells were infected by the wild type NLA.3 HIV-1 by addition of 50J..il of prepared virus stock diluted with 50 µl of complete DMEM. The compounds were added twice to ensure that there are not any preassembled viruses present at the time of their addition. Compounds were first added 8 hrs post-infection and then 24 hrs later. In both cases the old culture media were replaced by 100 µl of fresh complete DMEM prior to the compounds addition. Different compounds concentrations were tested, but the DMSO concentration never exceeded 1 % DMSO. As controls were used cells treated only with 1 % DMSO and cells treated with 0,1 µM Lopinavir (HIV-1 protease inhibitor). Supernatant was harvested 24 hrs after the second compound addition, i.e. 56 hrs post-infection. Harvested supernatants were immediately titrated on the fresh TZM cells in aim to perform the infectivity assay (TZM titration), or inactivated by addition of Triton X-100 to the final concentration 0.025 % for further ELISA analysis.
TZM titration was performed on the cells seeded day before on 96-well plate in the density 5 x 10^3 cells per well. The analysis was performed for each compound concentration at three different dilutions and in duplicates. The culture media was aspired and cells were lysed 48 hrs post-infection by addition of 100 µl of SteadyGlo luciferase substrate (Promega) diluted 1 : 1 by complete DMEM. The luminescence signal was measured on Luminoskan Ascent (Thermo Labsystems) after the transfer of 80 µl of lysate to the flat bottom white polystyrene assay plates (Costar).

Another series deals with TZM cells. The series can be described thus: in vitro. It is filed as cell-based. As to conditions: Table 4; non-cytotoxic when values higher than 80 % of 1 % DMSO treated cells. The procedure: Cytotoxicity of selected hits tested in the assay with NL4.3 infected cells was determined by MTT test. TZM cells were seeded on the previous day on 96-well plate in the density 5 x 10^3 cells per well. The tested compounds were added in different concentrations, but the DMSO concentration never exceeded 1 % DMSO. As controls were used cells treated only with 1 % DMSO (non-toxic concentration) and cells treated with 5 % DMSO (toxic concentration). 20 µl of the CellTiter 96 Aqueous One substrate (Promega) was added to the 100 µl of culture media 48 hrs after the compounds addition and the color development was quantified 4 hrs later by measuring the absorbance at 490 nm on Saphire reader. Compounds were consider non-cytotoxic (at given concentrations) when the measured values were higher than 80 % of the value of 1 % DMSO treated cells.

Another series concerns the target HIV capsid protein (Human immunodeficiency virus type 1 group M subtype B, UniProt P12493). Description: Isothermal titration calorimetry (ITC), whole capsid protein. It is filed as binding. To be noted: dissociation constant. The procedure: (§1) The binding of CA ligand AMR-346 to the HIV capsid protein and its C-terminal part was monitared using a VP-ITC microcalorimeter (MicroCal Inc., Northampton, USA) at 25 °C. The solutions of reactants were prepared in 30 mM MES, pH 6.0 containing 10 % glycerol, 2 mM 2-mercaptoethanol, 2 % DMSO, and the exact concentrations of proteins were determined by amino acid analysis. […] The isothermal titration was used to estimate the ligand concentration and the binding parameters were calculated for situation when single AMR-346 molecule binds to monomer or dimer of protein, respectively. Typically, 9 µl aliquots of AMR-346 were injected stepwise into the sample cell containing 1.43 ml of 7 µM protein until saturation was achieved. The experiment was accompanied by a corresponding control experiment in which AMR-346 was injected into buffer alone. The association constants were determined by software developed by MicroCal.
The CA ligand AMR-346 binds to monomer of HIV capsid protein or its C-terminal part with dissociation constants of 230 nM or 50 nM, respectively. For the binding mode of single molecule AMR-346 toward dimeric capsid protein and its C-terminal part, the dissociation constants were estimated to be 120 nM and 26 nM, respectively. Table 4: Synthesized and tested compounds

Series [2] has as its target HIV capsid protein C-terminal part (Human immunodeficiency virus type 1 group M subtype B, UniProt P12493). Description: Isothermal titration calorimetry (ITC), C-terminal part. To be noted: dissociation constant. Format: binding. The procedure: Upper graph: raw experimental data. Lower graph: Fit (line) to the integrated heats (full circles) from each injection, corrected for the heat of dilution of CA ligand AMR-346.
as §1
The CA ligand AMR-346 binds to monomer of HIV capsid protein or its C-terminal part with dissociation constants of 230 nM or 50 nM, respectively. […]

Consider `Cl.O=C(O)c1cc(O)ccc1Nc1nc(-c2cccnc2)nc2ccccc12` [5-hydroxy-2-(2-(pyridin-3-yl)quinazolin-4-ylamino)benzoic acid hydrochloride], for which the “solubility in DMSO” value in series [1] is listed as “insolubility in DMSO”.

In the case of `CCOC(=O)c1ccc(Nc2nc(-c3ccncc3)nc3ccccc23)cc1` [AMR.346], the IC50 is 7200 nM at CA and approximately 15 µM with wild type NL4.3 HIV-1. Also, the “toxicity LC50 (µM)” value with TZM cells is recorded as “non-toxic”. The equilibrium dissociation constant (Kd) at HIV capsid protein (one ligand binds to monomer of HIV capsid protein, 25 °C, pH 6.0) is 230 nM; at HIV capsid protein (single molecule binds to dimeric capsid protein, estimated), 120 nM; in series [2] (one ligand binds to monomer of C-terminal part, 25 °C, pH 6.0), 50 nM; in series [2] (single molecule binds to dimeric C-terminal part, estimated), 26 nM. Also, in series [1] (30 mM MES, pH 6.0, 10 % glycerol, 2 % DMSO, concentration required for ITC), the solubility entry was “low solubility”.

As for `Clc1cc(Nc2nc(-c3cccnc3)nc3ccccc23)cc(Cl)c1Cl` [KP-253], the “solubility in DMSO” value in series [1] was “insoluble in DMSO”.

`c1cncc(-c2nc(SCCSc3nc(-c4cccnc4)nc4ccccc34)c3ccccc3n2)c1` [OSR-291]: the “solubility in DMSO” value in series [1] is listed as “insoluble in DMSO”.
